The values below come from patent US6458838B1, “Adrenoleukodystrophy treatments” (Johns Hopkins University, priority 1999, dated 2002).

Common to all, as to type: cell-based
For assay [1], the system named is human X-ALD primary skin fibroblasts. Description: Immunofluorescence peroxisome counting. Particulars: for peroxisome number, Increase / peroxisome number, Treated: 10 day exposure to 5 mM 4PBA. An excerpt: Peroxisomes were made visible with immunofluorescence using a polyclonal antibody to the C-terminal tripeptide (SKL) peroxisome targeting signal 1 (PTS1), which is present in most peroxisomal matrix proteins. […] Slides were scanned visually and cells categorized as having low, medium or high numbers of peroxisomes. For each cell line, the number of peroxisomes is the mean of three ‘low’, four ‘medium’ and three ‘high’ cells (Table 3). There was no difference between control cells and X-ALD cells in either the number of peroxisomes per cell or in the response to 4-PBA. […] The 2.4-fold increase in the number of peroxisomes per cell was statistically significant (P<0.0000001, two-tailed Student's t-test). Peroxisome numbers obtained with an antibody against a peroxisomal membrane protein (Pex14p) gave similar results (data not shown).
Immunofluorescence and peroxisome counting. […] The anti-SKL (PTSI) antibody was a gift from S. Gould and the anti-Pex11α antibody was a gift from S. Mihalik. To count peroxisomes, we photographed immunofluorescence-stained cells after focusing on the cell nucleus, and determined the peroxisome number per cell with the aid of a colon counter after projecting the slides to enlarge the image.

Assay [2] deals with human primary fibroblasts. The assay is described as follows: Phytanic acid oxidation ([2,3-3H]-phytanic acid, release of 3H-H2O). Particulars: 5 mM 4-PBA for 10 days. An excerpt:
The increase in phytanic acid oxidation activity was significant (P<0.001 5(n=4) for X-ALD primary fibroblasts and P<0.013 (n=3) for normal primary fibroblasts). […] The relative amount of SCP2 protein was compared to the housekeeping gene β-actin.
Phytanic acid oxidation occurs exclusively in the peroxisomal matrix and can therefore serve as a marker for peroxisomal function. […] SCP2 is a 15-kDa protein located exclusively in the peroxisomal matrix.
(§1) Biochemical measurements. […] For VLCFA measurements, total lipids were extracted, converted to methyl esters, purified by TLC and subjected to capillary GC analysis as described. Duplicate assays were set up independently and were assayed on different days. C24:0 β-oxidation activity of human and mouse fibroblasts and human lymphoblastoid cells was determined by measuring their capacity to degrade [1-^14C]-C24:0 fatty acid (American Radiolabeled Chemicals, St Louis, Mo.) to water-soluble products as described. Phytanic acid oxidation was measured as described. Cells were incubated with [2,3-^3H]-phytanic acid for 24 hours, and the release of ^3H-H2O to the aqueous medium was determined (activity in pmol/hr per mg protein).

Assay [3] has as its system ALDR mRNA. The assay is described as follows: Semi-quantitative RT-PCR in primary fibroblasts. Conditions: 5 mM 4-PBA for 2 days. As for the experimental part: Semi-quantitative RT-PCR was done on the mRNA isolated from these cells (FIG. 1). […] In addition, the expression of acyl-CoA oxidase (AOX), the rate-limiting enzyme in VLCFA β-oxidation, was not affected. Although previous studies have reported that ALDR mRNA was not detectable in fibroblasts by either northern or RT-PCR analyses, those RT-PCR studies used about 66 ng of CDNA; we used about 250 ng of cDNA.
Semi-quantitative RT-PCR analysis. Total RNA from tissue culture cells (10^6-10^7 cells/sample) was isolated using TRizol Reagent™ (Life Technologies), treated with DNase I (100-200 units in 40 mM HCI, 10 mM NaCl, 6 mM MgCl2, pH 7.3), incubated at 37° C. for 30 min, extracted with phenol/chloroform, and precipitated with isopropanol. cDNA was generated using MMLV reverse transcriptase (RT) (Life Technologies). PCR was done in the linear range of amplification (determined for each primerpair-cDNA combination). For each cDNA sample, a ‘cocktail’ was prepared, containing PCR buffer (Promega), 200 µM of each DNTP, 1.5 mM MgCl2, 250 ng cDNA, 0.25 U of Taq polymerase (Promega) and […]. The ‘cocktail’ was divided into separate tubes containing cDNA specific primers.
Primers. The PCR primers used are listed below. In the parentheses, h indicates human and m, mouse; this is followed by the gene name, product size and annealing temperature. […]

The subject of assay [4] is human lymphoblastoid cells (EBV-transformed lymphocytes) derived from X-ALD patients. Description: VLCFA (C24:0, C26:0) levels in cultured cells, capillary GC. Conditions: for C26:0 Percent Correction: 5 mM 4PBA. As for the experimental part:
The genotypes of the X-ALD patients included missense, nonsense, frame shift and deletion mutations and all of the main clinical phenotypes.
Cell lines derived from X-ALD patients and X-ALD mice were grown in MEM (fibroblasts) or RPMI (ymphoblastoid cells) supplemented with fetal calf serum (10%), penicillin (100 U/ml), streptomycin (100 U/mi) and glutamine (2 mM). […] Cells in the second flask were grown without drug for the same length of time and served as controls. The media were changed every 3-4 days.
as §1

[5] abbreviates: cell line X-ALD (fs E471), first of two independent lines.
Where [6] appears, read: cell line X-ALD (fs E471), second of two independent lines.

Take `O=C(O)CCCc1ccccc1` [4-PBA, 4-Phenyl butyrate]: the “peroxisome number seen by immunofluorescence” value in assay [1] (5 mM 4-PBA, after 8 days of treatment) is “approximately twofold increase”. The “peroxisome number, Increase” value in assay [1] (Mean of five X-ALD cell lines) amounted to 2.5 fold; in assay [1] (cell line X-ALD (A626T)) it was 2.4 fold; in assay [1] (cell line X-ALD (R591Q)), 2.8 fold; in assay [1] (cell line X-ALD (exon 7-10del)) it was 2.6 fold; in assay [1] (setting [5]) it was 2.2 fold; in assay [1] (setting [6]), 2.7 fold. Further, the “peroxisome number, Treated” value came to 1074 ± 92 peroxisomes per cell in assay [1] (Mean of five X-ALD cell lines); 968 ± 349 peroxisomes per cell in assay [1] (cell line X-ALD (A626T)); 1159 ± 363 peroxisomes per cell in assay [1] (cell line X-ALD (R591Q)); 1164 ± 378 peroxisomes per cell in assay [1] (cell line X-ALD (exon 7-10del)); 992 ± 344 peroxisomes per cell in assay [1] (setting [5]); 1089 ± 365 peroxisomes per cell in assay [1] (setting [6]). Moreover, the “increase in number of peroxisomes per cell” value in assay [1] (X-ALD and control cell lines combined, 10 days 5 mM 4-PBA) stood at 2.4 fold. Also, the “peroxisomes per cell after exposure, combined results” value in assay [1] (five X-ALD and four control cell lines combined, 10 days 5 mM 4-PBA, 416±27 before exposure) is 1014±108 peroxisomes per cell. The phytanic acid oxidation result in assay [2] (X-ALD human primary fibroblasts) and in assay [2] (normal human primary fibroblasts) was “twofold increase” throughout. Further, the “ALDR mRNA levels” value in assay [3] (normal and X-ALD human primary fibroblasts) is “substantial increase”; in assay [3] (normal and X-ALD mouse primary fibroblasts), “substantial increase”. Moreover, in assay [4] (5 mM 4-PBA), the “time of treatment until C24:0 and C26:0 levels were normalized” value is at most 10 days. Besides, the “C26:0 Percent Correction” value amounted to 71% in assay [4] (exposure 6 days) and 90% in assay [4] (exposure 10 days).
